Data reported in patent publication US8008088B2, “SMMR (small molecule metabolite reporters) for use as in vivo glucose biosensors” (Masimo Laboratories, Inc., priority 2003, dated 2011).
Like-named read-outs stand apart in the source and are kept apart here.

Experiments:
[1] = Glucose response rate in stirred cuvette, pH 8 phosphate buffer; conditions: 100 μL of 300 mg/dL glucose added; monitored every 15 seconds; ex 340 nm, em 440 nm
Protocol: Arg-327 unprotected batches were prepared. One batch was supplied as a yellow powder and the other as a concentrated solution in deuterated methanol. A small sample of these materials was taken and dissolved in 3 ml of pH 8 phosphate buffer. The fluorescence of these materials was excited at 340 nm and the emission monitored at 440 nm. The fluorescence was monitored every 15 seconds in a stirred cuvette. After about 3 minutes 100 μL of 300 mg/dL glucose in pH 8 buffer was added. […] Similar results were obtained for both samples.

PHK cells = test: In-vitro detection in PHK cells loaded with reporter, two-photon fluorescent imaging; assay type: cell-based; conditions: reporter 50 micromolar; glucose increased to 300 mg/dl; EM 440 nm, excitation (2P) 705 nm
Protocol: PHK cells were loaded with AF-327d reporter, at 50 micromolar concentration, in buffer. Fluorescence was measured using a two-photon fluorescent imaging system at approximately EM 440 nm, and excitation at (2P) 705 nm. Pictures taken 10 minutes apart show a slight change in fluorescence intensity upon increasing the glucose concentration to 300 mg/dl in the cell buffer medium. This is seen clearly, as a 20% decrease in time course of fluorescence.

[2] = Fluorescence and absorption response of boronic acid reporters to glucose in buffer solution (in vitro); conditions: for rise in fluorescence intensity on addition of glucose: glucose changed from zero to 300 mg/dL
[3] = pH dependency of esculetin spectra (pKa determination); assay type: physicochemical
Excerpt: The intensity of the fluorescence varies with pH but not the emission wavelength. The absorption spectrum did change with pH, implying the molecule could be used ratiometrically to measure pH using one monitoring wavelength and two excitation wavelengths. The relevant spectra are shown here together with a plot of absorption ratio as a function of pH (FIG. 45).

[4] = hydroxyl group at position 3; cited from earlier work
[5] = Absorption and emission spectra of fluorescein and BeXan (Table 4); assay type: physicochemical
Excerpt: The configuration of the dye is strongly influenced by the nature of the heteroatom substitution. The structure of the dye responsible for the absorption may be estimated by consideration of the photophysical properties of related compounds and calculations on them. For example comparison of fluorescein and BeXan type dyes are shown in FIGS. 21a and 21b, with structures shown in Schemes 11 and 12, respectively.

[6] = protonated, first (high energy) band
[7] = protonated, second (low energy) band

O=C(Nc1ccc2c(C(F)(F)F)cc(=O)oc2c1)c1ccc(B(O)O)cc1 [AF-327d]
glucose response rate (fluorescence versus time) [1]: increased immediately
decrease in time course of fluorescence (PHK cells): 20%
fluorescence emission (em) [2]: 440 nm
fluorescence excitation (ex) [2]: 340 nm
long wavelength absorption maximum [2]: 333 nm
response to glucose in vitro (in words) [2]: stronger response to glucose than other published compounds
change of absorption spectrum at the excitation wavelength ([2]; as a function of glucose concentration): less than 10%
rise in fluorescence intensity on addition of glucose [2]: 60%
Emission Wavelength ([2]; with and without added glucose at pH=7): 440 nm

O=C(Nc1ccc([N+](=O)[O-])cc1)c1ccc(B(O)O)cc1 [AF-339]
response to glucose in vitro (in words) [2]: weaker than AF-327

O=C(/C=C/c1ccc(B(O)O)cc1)c1cc2ccccc2oc1=O [AF-343]
response to glucose in vitro (in words) [2]: No fluorescence or glucose effect

O=C(Nc1ccc2oc(=O)c3ccccc3c2c1)c1ccc(B(O)O)cc1 [AF-345]
fluorescence emission (em) [2]: 435 nm
fluorescence excitation (ex) [2]: 330 nm
rise in fluorescence intensity on addition of glucose [2]: 30%

O=c1ccc2cc(O)c(O)cc2o1 [esculetin, 6,7 dihydroxycoumarin]
pKa [3]: 7.5

fluorescein
pKa [4]: 6.4
Difference in energy of protonated absorption bands [5]: 3.6 kcal/mol
Stokes shift for deprotonated bands [5]: 4.1 kcal/mol
Stokes shift for protonated bands [5]: 3.8 kcal/mol
Band position relative to the high-energy protonated absorption band, Absorption ([5]; Deprotonated band): 5.7 kcal/mol
Band position relative to the high-energy protonated absorption band, Emission ([5]; Deprotonated band): 9.8 kcal/mol
Band position relative to the high-energy protonated absorption band, Absorption ([5]; High energy protonated band): 0 kcal/mol
Band position relative to the high-energy protonated absorption band, Emission ([5]; High energy protonated band): 7.4 kcal/mol
Band position relative to the high-energy protonated absorption band, Absorption ([5]; Low energy protonated band): 3.6 kcal/mol
Band position relative to the high-energy protonated absorption band, Emission ([5]; Low energy protonated band): 9.9 kcal/mol
Absorption Energy ([5]; deprotonated): 57.1 kcal/mol
Absorption Wavelength ([5]; deprotonated): 501 nm
Emission Energy ([5]; deprotonated): 53 kcal/mol
Emission Wavelength ([5]; deprotonated): 540 nm
Absorption Energy [5, 6]: 62.8 kcal/mol
Absorption Wavelength [5, 6]: 455 nm
Emission Energy [5, 6]: 55.4 kcal/mol
Emission Wavelength [5, 6]: 516 nm
Absorption Energy [5, 7]: 59.2 kcal/mol
Absorption Wavelength [5, 7]: 483 nm
Emission Energy [5, 7]: 52.9 kcal/mol
Emission Wavelength [5, 7]: 541 nm
